Values joined by “and” are separate entries in the source; they are usually repeats but may differ in a detail not shown here. Equal entries are not always repeated.

Among the data in ChEMBL document CHEMBL1135136, “Carbonic anhydrase inhibitors. Preparation of potent sulfonamides inhibitors incorporating bile acid tails” (Bioorg Med Chem Lett, 2002) are Ki and Level values, retold here.

Experiment [1] concerns the target Carbonic anhydrase 2 (Homo sapiens, UniProt P00918).
Description: Inhibitory activity against human recombinant carbonic anhydrase II (CA2)
Experiment [2] concerns the target T1, Carbonic anhydrase 4 (Bos taurus, UniProt Q95323).
T1 sequence (Q95323 whole entry): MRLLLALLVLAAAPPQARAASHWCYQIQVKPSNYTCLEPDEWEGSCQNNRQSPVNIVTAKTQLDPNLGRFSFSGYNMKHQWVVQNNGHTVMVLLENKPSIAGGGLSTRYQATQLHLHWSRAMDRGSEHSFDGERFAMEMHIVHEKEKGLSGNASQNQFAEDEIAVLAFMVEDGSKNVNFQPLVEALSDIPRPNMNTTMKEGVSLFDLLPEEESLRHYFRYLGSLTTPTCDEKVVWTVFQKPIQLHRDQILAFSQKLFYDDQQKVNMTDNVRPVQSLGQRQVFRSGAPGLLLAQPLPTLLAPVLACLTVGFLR
Description: Inhibitory activity against bovine carbonic anhydrase IV (CA4), obtained from bovine lung microsomes

The target in experiment [3] is Carbonic anhydrase 1 (Homo sapiens, UniProt P00915).
Description: Inhibitory activity against human recombinant carbonic anhydrase I (CA1)
For experiment [4], the species on record is Oryctolagus cuniculus.
Description: (§1) Tested for level of sulfonamide in red blood cells of albino rabbits at 120 min post-administration of 50 mg/kg sulfonamides
For experiment [5], the species on record is Oryctolagus cuniculus. The source holds these as a separate data set.
Description: as §1
Experiment [6] is filed under the species Oryctolagus cuniculus. This is another data set of the same source.
Description: Tested for level of sulfonamide in red blood cells of albino rabbits at 60 min post-administration of 50 mg/kg sulfonamides

Sequence of Carbonic anhydrase 1 (P00915 whole entry): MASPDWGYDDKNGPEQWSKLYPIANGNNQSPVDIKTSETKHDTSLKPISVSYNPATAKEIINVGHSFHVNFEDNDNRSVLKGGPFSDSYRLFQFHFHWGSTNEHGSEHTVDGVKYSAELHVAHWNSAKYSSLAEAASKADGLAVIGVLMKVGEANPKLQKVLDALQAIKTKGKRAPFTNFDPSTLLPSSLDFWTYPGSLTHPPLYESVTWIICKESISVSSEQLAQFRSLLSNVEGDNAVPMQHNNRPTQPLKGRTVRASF

For the compound `C[C@H](CCC(=O)Oc1ccc2nc(S(N)(=O)=O)sc2c1)[C@H]1CC[C@H]2[C@@H]3C(=O)C[C@@H]4CC(=O)CC[C@]4(C)[C@H]3CC(=O)[C@]12C`, the inhibitory constant (Ki) stood at 0.6 nM in experiment [1], 5 nM in experiment [2] and 33 nM in experiment [3]. For the same compound, the Level in experiment [4] was 158 µM; in experiment [5] it was 163 µM; in experiment [6], 156 µM and 159 µM.

For the compound `C[C@H](CCC(=O)/N=c1\sc(S(N)(=O)=O)nn1C)[C@H]1CC[C@H]2[C@@H]3CC[C@@H]4C[C@H](O)CC[C@]4(C)[C@H]3C[C@H](O)[C@]12C`, the Ki in experiment [1] was 11 nM; in experiment [2], 63 nM; in experiment [3], 240 nM.

For `C[C@H](CCC(=O)Nc1nnc(S(N)(=O)=O)s1)[C@H]1CC[C@H]2[C@@H]3CC[C@@H]4C[C@H](O)CC[C@]4(C)[C@H]3CC[C@]12C`, the results for the Ki in experiment [1], in experiment [2] and in experiment [3] were 10 nM, 28 nM and 210 nM, respectively.

Regarding `C[C@H](CCC(=O)Oc1ccc2nc(S(N)(=O)=O)sc2c1)[C@H]1CC[C@H]2[C@@H]3[C@H](O)C[C@@H]4C[C@H](O)CC[C@]4(C)[C@H]3CC[C@]12C`, the Ki in experiment [1] is 6.1 nM; in experiment [2], 12 nM; in experiment [3], 47 nM.

`C[C@H](CCC(=O)Nc1cccc(S(N)(=O)=O)c1)[C@H]1CC[C@H]2[C@@H]3C(=O)C[C@@H]4CC(=O)CC[C@]4(C)[C@H]3CC(=O)[C@]12C`: the inhibition constant Ki worked out at 156 nM in experiment [1], 440 nM in experiment [2] and 7440 nM in experiment [3].

In the case of `C[C@H](CCC(=O)Nc1ccc(S(N)(=O)=O)cc1Br)[C@H]1CC[C@H]2[C@@H]3CC[C@@H]4C[C@H](O)CC[C@]4(C)[C@H]3CC[C@]12C`, the Ki came out at 21 nM in experiment [1], 53 nM in experiment [2] and 120 nM in experiment [3].

Take `C[C@H](CCC(=O)OCCOc1ccc2nc(S(N)(=O)=O)sc2c1)[C@H]1CC[C@H]2[C@@H]3C(=O)C[C@@H]4CC(=O)CC[C@]4(C)[C@H]3CC(=O)[C@]12C`: the values for the Ki in experiment [1], in experiment [2] and in experiment [3] were 0.8 nM, 6 nM and 30 nM, respectively.

Turning to `C[C@H](CCC(=O)Nc1ccc(S(N)(=O)=O)cc1Br)[C@H]1CC[C@H]2[C@@H]3CC[C@@H]4C[C@H](O)CC[C@]4(C)[C@H]3C[C@H](O)[C@]12C`, the inhibition constant (Ki) amounted to 31 nM in experiment [1], 50 nM in experiment [2] and 365 nM in experiment [3].

Regarding `C[C@H](CCC(=O)NCCC(=O)Nc1nnc(S(N)(=O)=O)s1)[C@H]1CC[C@H]2[C@@H]3[C@H](O)C[C@@H]4C[C@H](O)CC[C@]4(C)[C@H]3CC[C@]12C`, the Ki in experiment [1] was 2 nM; in experiment [2] it was 45 nM; in experiment [3], 268 nM.

Regarding `C[C@H](CCC(=O)Nc1nnc(S(N)(=O)=O)s1)[C@H]1CC[C@H]2[C@@H]3C(=O)C[C@@H]4CC(=O)CC[C@]4(C)[C@H]3CC(=O)[C@]12C`, the Ki in experiment [1] stood at 0.5 nM; in experiment [2], 9 nM; in experiment [3], 41 nM. For the same compound, the Level in experiment [4] is 151 µM; in experiment [5], 159 µM; in experiment [6], 155 µM and 162 µM.

Regarding `C[C@H](CCC(=O)OCCc1ccc(S(N)(=O)=O)cc1)[C@H]1CC[C@H]2[C@@H]3[C@@H](O)C[C@@H]4C[C@H](O)CC[C@]4(C)[C@H]3CC[C@]12C`, the inhibition constant (Ki) is 58 nM in experiment [1], 160 nM in experiment [2] and 350 nM in experiment [3].

`C[C@H](CCC(=O)Nc1nnc(S(N)(=O)=O)s1)[C@H]1CC[C@H]2[C@@H]3CC[C@@H]4C[C@H](O)CC[C@]4(C)[C@H]3C[C@H](O)[C@]12C`: the Ki in experiment [1] is 50 nM; in experiment [2], 130 nM; in experiment [3] it was 200 nM.

With `C[C@H](CCC(=O)NNc1ccc(S(N)(=O)=O)cc1)[C@H]1CC[C@H]2[C@@H]3[C@H](O)C[C@@H]4C[C@H](O)CC[C@]4(C)[C@H]3CC[C@]12C`, the figures for the Ki in experiment [1], in experiment [2] and in experiment [3] were 295 nM, 850 nM and 27500 nM, respectively.

As for `C[C@H](CCC(=O)Nc1ccc(S(N)(=O)=O)cc1F)[C@H]1CC[C@H]2[C@@H]3CC[C@@H]4C[C@H](O)CC[C@]4(C)[C@H]3C[C@H](O)[C@]12C`, the Ki came to 42 nM in experiment [1], 96 nM in experiment [2] and 780 nM in experiment [3].

For `C[C@H](CCC(=O)Nc1ccccc1S(N)(=O)=O)[C@H]1CC[C@H]2[C@@H]3[C@H](O)C[C@@H]4C[C@H](O)CC[C@]4(C)[C@H]3C[C@H](O)[C@]12C`, the Ki was 275 nM in experiment [1], 1200 nM in experiment [2] and 25500 nM in experiment [3].

Consider `C[C@H](CCC(=O)NCc1ccc(S(N)(=O)=O)cc1)[C@H]1CC[C@H]2[C@@H]3C(=O)C[C@@H]4CC(=O)CC[C@]4(C)[C@H]3CC(=O)[C@]12C`, for which the Ki was 26 nM in experiment [1], 40 nM in experiment [2] and 600 nM in experiment [3].

Take `C[C@H](CCC(=O)Nc1ccc(S(N)(=O)=O)cc1Cl)[C@H]1CC[C@H]2[C@@H]3C(=O)C[C@@H]4CC(=O)CC[C@]4(C)[C@H]3CC(=O)[C@]12C`: the Ki was 13 nM in experiment [1], 30 nM in experiment [2] and 200 nM in experiment [3].

Take `C[C@H](CCC(=O)Oc1ccc2nc(S(N)(=O)=O)sc2c1)[C@H]1CC[C@H]2[C@@H]3[C@H](O)C[C@@H]4C[C@H](O)CC[C@]4(C)[C@H]3C[C@H](O)[C@]12C`: the Ki in experiment [1] is 4 nM; in experiment [2], 9 nM; in experiment [3], 32 nM.

As to `C[C@H](CCC(=O)OCCc1ccc(S(N)(=O)=O)cc1)[C@H]1CC[C@H]2[C@@H]3CC[C@@H]4C[C@H](O)CC[C@]4(C)[C@H]3CC[C@]12C`, the Ki in experiment [1] was found to be 81 nM; in experiment [2] it was 310 nM; in experiment [3], 625 nM.

As usually defined, the Ki is a measure of affinity in units of concentration, obtained from inhibition or displacement. A lower Ki goes with higher affinity.
